Measured values reported in patent US6737383B1, “Herbicidal oxadiazolidines” (priority 1999, dated 2004).

Legend:
[1] = system: bedstraw; assay: Test B pre/postemergence bedstraw; type: in vivo, Galium aparine
Procedure, shortened: (§1)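 Herbicidal effect was estimated by eye on a ten-point control scale after plants spent twelve to sixteen days in a greenhouse following soil or foliar treatment. Foliar sprays targeted plants at one to four leaves; all doses were formulated in a non-phytotoxic solvent with surfactant.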

[2] = system: blackgrass; assay: Test B pre/postemergence blackgrass; type: in vivo, Alopecurus myosuroides
Procedure, shortened: as §1

[3] = system: surinam grass; assay: Test B pre/postemergence surinam grass; type: in vivo, Brachiaria decumbens
Procedure, shortened: as §1

[4] = system: cocklebur; assay: Test B pre/postemergence cocklebur; type: in vivo, Xanthium strumarium
Procedure, shortened: as §1

[5] = system: corn; assay: Test B pre/postemergence corn; type: in vivo, Zea mays
Procedure, shortened: as §1

[6] = system: crabgrass; assay: Test B pre/postemergence crabgrass; type: in vivo, Digitaria sanguinalis
Procedure, shortened: as §1

[7] = system: giant foxtail; assay: Test B pre/postemergence giant foxtail; type: in vivo, Setaria faberii
Procedure, shortened: as §1

[8] = system: morningglory; assay: Test B pre/postemergence morningglory; type: in vivo, Ipomoea hederacea
Procedure, shortened: as §1

[9] = system: pigweed; assay: Test B pre/postemergence pigweed; type: in vivo, Amaranthus retroflexus
Procedure, shortened: as §1

[10] = system: rape; assay: Test B pre/postemergence rape; type: in vivo, Brassica napus
Procedure, shortened: as §1

[11] = system: soybean; assay: Test B pre/postemergence soybean; type: in vivo, Glycine max
Procedure, shortened: as §1

[12] = system: sugar beet; assay: Test B pre/postemergence sugar beet; type: in vivo, Beta vulgaris
Procedure, shortened: as §1

[13] = system: velvetleaf; assay: Test B pre/postemergence velvetleaf; type: in vivo, Abutilon theophrasti
Procedure, shortened: as §1

[14] = system: wheat; assay: Test B pre/postemergence wheat; type: in vivo, Triticum aestivum
Procedure, shortened: as §1

[15] = system: wild oat; assay: Test B pre/postemergence wild oat; type: in vivo, Avena fatua
Procedure, shortened: as §1

[16] = system: purple nutsedge; assay: Test B pre/postemergence purple nutsedge; type: in vivo, Cyperus rotundus
Procedure, shortened: as §1

[17] = Postemergence, Rate 31 g/ha, visual rating, scale 0 to 10 (0 no effect, 10 complete control)
[18] = Postemergence, Rate 62 g/ha, scale 0 to 10, 0 is no effect, 10 is complete control
[19] = Postemergence, Rate 125 g/ha, scale of 0 to 10 where 0 is no effect and 10 is complete control
[20] = Preemergence, Rate 31 g/ha, visual rating, scale 0 to 10 (0 no effect, 10 complete control)
[21] = Preemergence, Rate 250 g/ha, scale 0 (no effect) to 10 (complete control)
[22] = Rate 62 g/ha, Preemergence, scale 0 to 10
[23] = Rate 125 g/ha, Preemergence, scale 0 to 10 (0 no effect, 10 complete control)
[24] = Rate 250 g/ha, Postemergence, scale 0 to 10, 0 is no effect, 10 is complete control
[25] = Preemergence, Rate 62 g/ha, scale of 0 to 10 where 0 is no effect and 10 is complete control
[26] = Preemergence, Rate 125 g/ha, scale of 0 to 10 where 0 is no effect and 10 is complete control
[27] = Rate 500 g/ha, Preemergence, scale 0 to 10 (0 no effect, 10 complete control)

CCOP(=O)(OCC)C(C)n1c(=O)on(C(=O)N(c2ccc(F)cc2F)C(C)C)c1=O (stereo not shown) [Compound 776]
9: Crabgrass plant response rating [6, 21] | Giant foxtail plant response rating [7, 21] | Giant foxtail plant response rating [7, 22] | Giant foxtail plant response rating [7, 23]
0: Bedstraw plant response rating [1, 17] | Plant response rating, Bedstraw [1, 18] | Bedstraw plant response rating [1, 20] | Bedstraw plant response rating [1, 21] | Bedstraw plant response rating [1, 22] | Bedstraw plant response rating [1, 23] | Blackgrass plant response rating [2, 20] | Blackgrass plant response rating [2, 22] | Blackgrass plant response rating [2, 23] | B. signalgrass plant response rating [3, 17] | Plant response rating, B. signalgrass [3, 18] | B. signalgrass plant response rating [3, 19] | B. signalgrass plant response rating [3, 24] | Cocklebur plant response rating [4, 17] | Plant response rating, Cocklebur [4, 18] | Cocklebur plant response rating [4, 19] | Cocklebur plant response rating [4, 20] | Cocklebur plant response rating [4, 24] | Corn plant response rating [5, 17] | Plant response rating, Corn [5, 18] | Corn plant response rating [5, 19] | Corn plant response rating [5, 20] | Corn plant response rating [5, 22] | Corn plant response rating [5, 23] | Corn plant response rating [5, 24] | Morningglory plant response rating [8, 22] | Redroot pigweed plant response rating [9, 17] | Redroot pigweed plant response rating [9, 22] | Redroot pigweed plant response rating [9, 23] | Rape plant response rating [10, 17] | Rape plant response rating [10, 22] | Rape plant response rating [10, 23] | Soybean plant response rating [11, 22] | Soybean plant response rating [11, 23] | Sugarbeets plant response rating [12, 17] | Plant response rating, Sugarbeets [12, 18] | Sugarbeets plant response rating [12, 22] | Sugarbeets plant response rating [12, 23] | Velvetleaf plant response rating [13, 22] | Velvetleaf plant response rating [13, 23] | Wheat plant response rating [14, 17] | Plant response rating, Wheat [14, 18] | Wheat plant response rating [14, 22] | Wheat plant response rating [14, 24] | Wild oats plant response rating [15, 17] | Plant response rating, Wild oats [15, 18] | Wild oats plant response rating [15, 24] | Nutsedge plant response rating [16, 17] | Plant response rating, Nutsedge [16, 18] | Nutsedge plant response rating [16, 19] | Nutsedge plant response rating [16, 22] | Nutsedge plant response rating [16, 24]
5: Crabgrass plant response rating [6, 20] | Crabgrass plant response rating [6, 22] | Giant foxtail plant response rating [7, 20]
3: Bedstraw plant response rating [1, 19] | Bedstraw plant response rating [1, 24] | Sugarbeets plant response rating [12, 24] | Plant response rating, Velvetleaf [13, 18] | Velvetleaf plant response rating [13, 24]
8: Crabgrass plant response rating [6, 23]
7: Plant response rating, Morningglory [8, 18] | Morningglory plant response rating [8, 19]
1: Corn plant response rating [5, 21] | Soybean plant response rating [11, 17]
2: Blackgrass plant response rating [2, 17] | Plant response rating, Blackgrass [2, 18] | Blackgrass plant response rating [2, 19] | Blackgrass plant response rating [2, 21] | Blackgrass plant response rating [2, 24] | Crabgrass plant response rating [6, 17] | Plant response rating, Crabgrass [6, 18] | Crabgrass plant response rating [6, 19] | Crabgrass plant response rating [6, 24] | Giant foxtail plant response rating [7, 17] | Plant response rating, Giant foxtail [7, 18] | Giant foxtail plant response rating [7, 19] | Giant foxtail plant response rating [7, 24] | Morningglory plant response rating [8, 23] | Plant response rating, Redroot pigweed [9, 18] | Redroot pigweed plant response rating [9, 19] | Redroot pigweed plant response rating [9, 24] | Plant response rating, Rape [10, 18] | Rape plant response rating [10, 19] | Rape plant response rating [10, 24] | Plant response rating, Soybean [11, 18] | Soybean plant response rating [11, 24] | Velvetleaf plant response rating [13, 17] | Wheat plant response rating [14, 23] | Wild oats plant response rating [15, 22] | Wild oats plant response rating [15, 23]
4: Morningglory plant response rating [8, 17]

COC(CCl)n1c(=O)on(C(=O)N(c2ccccc2)C(C)C)c1=O (stereo not shown) [Compound 735]
2: Morningglory plant response rating [8, 21] | Morningglory plant response rating [8, 27] | Plant response rating, Sugarbeets [12, 26] | Wheat plant response rating [14, 27]
3: Velvetleaf plant response rating [13, 21] | Velvetleaf plant response rating [13, 27]
9: B. signalgrass plant response rating [3, 21] | Corn plant response rating [5, 27] | Giant foxtail plant response rating [7, 25] | Redroot pigweed plant response rating [9, 27]
1: Rape plant response rating [10, 25]
10: Plant response rating, Blackgrass [2, 26] | Blackgrass plant response rating [2, 21] | Blackgrass plant response rating [2, 27] | B. signalgrass plant response rating [3, 27] | Crabgrass plant response rating [6, 25] | Plant response rating, Crabgrass [6, 26] | Crabgrass plant response rating [6, 21] | Crabgrass plant response rating [6, 27] | Plant response rating, Giant foxtail [7, 26] | Giant foxtail plant response rating [7, 21] | Giant foxtail plant response rating [7, 27] | Wild oats plant response rating [15, 27]
8: Blackgrass plant response rating [2, 25] | Plant response rating, B. signalgrass [3, 26] | Corn plant response rating [5, 21] | Redroot pigweed plant response rating [9, 21] | Rape plant response rating [10, 21] | Rape plant response rating [10, 27] | Plant response rating, Wild oats [15, 26] | Wild oats plant response rating [15, 21]
0: Bedstraw plant response rating [1, 25] | Plant response rating, Bedstraw [1, 26] | Bedstraw plant response rating [1, 21] | Bedstraw plant response rating [1, 27] | Cocklebur plant response rating [4, 25] | Plant response rating, Cocklebur [4, 26] | Cocklebur plant response rating [4, 21] | Cocklebur plant response rating [4, 27] | Corn plant response rating [5, 25] | Morningglory plant response rating [8, 25] | Plant response rating, Morningglory [8, 26] | Soybean plant response rating [11, 25] | Plant response rating, Soybean [11, 26] | Soybean plant response rating [11, 21] | Soybean plant response rating [11, 27] | Sugarbeets plant response rating [12, 25] | Velvetleaf plant response rating [13, 25] | Plant response rating, Velvetleaf [13, 26] | Wheat plant response rating [14, 25] | Plant response rating, Wheat [14, 26] | Nutsedge plant response rating [16, 25] | Nutsedge plant response rating [16, 21]
7: B. signalgrass plant response rating [3, 25] | Plant response rating, Redroot pigweed [9, 26] | Sugarbeets plant response rating [12, 27]
6: Plant response rating, Corn [5, 26] | Plant response rating, Rape [10, 26] | Sugarbeets plant response rating [12, 21] | Wild oats plant response rating [15, 25]
5: Redroot pigweed plant response rating [9, 25]
